Entries after “also recorded” stand apart in the source; their conditions may differ. Where a name gives a salt, the structure may show the parent alone. Read-outs that look alike come from different tables or passages of the source.
Tests used:
[1] = system: mice (acetic acid writhing); assay: Acetic Acid Mouse Writhing Test (analgesic effects); format: in vivo, male CD-1 mice; conditions: sc, 0.25 h, subcutaneous, acetic acid i.p. 15 min post drug, read-out: ED50 (dose required to reduce the number of writhes by 50%)
Procedure: Acetic Acid Mouse Writhing Test
The analgesic effects of the test compounds were determined in mice by use of the acetic acid writhing test described by B. A. Whittle, Brit. J. Pharmacol., 22: 246 (1964). In this test at least three groups of 5 male CD-1 mice each were given subcutaneous doses of the test drug dissolved in distilled water. In all cases 0.4 milliliters of a 0.5% V/V acetic acid in distilled water solution was administered intraperitoneally 15 minutes post drug. The number of writhes in a 20 minute interval beginning 5 minutes after the acetic acid injection were determined and compared with the number of writhes in a control group which had received only acetic acid.
Percent inhibition of writhing was calculated as: [formula]
The ED50 dose, i.e., the dose required to reduce the number of writhes by 50%, was determined graphically from a plot of % inhibition as a probit verus log dose. Confidence limits of 95% were calculated on the basis of those results falling in the range 16-84% inhibition. See Litchfield, J. T. and Wilcoxon, F., J. Pharmacol. Exp. Ther., 96, 99-113 (1949).

[2] = system: Physically Morphine Dependent Rats; format: in vivo
Procedure: (§1) Substitution Studies in Physically Morphine Dependent Rats
(§2) Rats were made physically dependent by continuous infusion of morphine through an indwelling intraperitoneal cannula as has been described (D. G. Teiger, J. Pharmacol. Exp. Ther., 190 408, 1974). Then one day substitution of either TR-5257 or TR-5379 was studied. Both drugs were infused at the rate of 125 mg/kg/day.

[3] = system: Physically Morphine Dependent Rats; assay: Incidence of side effects during substitution in morphine dependent rats
Procedure: as §1, §2
*Post termination of morphine infusion and during test drug infusion.

drug dependent monkeys = assay: Substitution for morphine in drug dependent monkeys; format: in vivo
[4] = system: rats (effect of morphine, tail flick); assay: Evaluation of Narcotic Antagonist Activity (modified rat tail flick test, antagonism of morphine); format: in vivo, male albino Wistar rats
Procedure: Evaluation of Narcotic Antagonist Activity
The narcotic antagonist effect of the test compound was determined by a modification of the rat tail flick procedure of Harris and Pierson (J. Pharmacol. Exp. Ther., 143:141 [1964]).
Male albino Wistar rats (100-120 g) were used for this study. A rat's tail is so placed so as to cover a photocell. Heat is applied by a lamp in a reflector with a timer being connected to the lamp and photocell so that the timer goes on when the light is turned on and is turned off when the photocell is uncovered. A rheostat, incorporated into a heating lamp is used to adjust the intensity of the light falling on the tail of the rat such that the rat's control reaction time is from two to four seconds. Animals with a control reaction time outside this range are rejected. The rheostat adjustment is made only if a significant proportion (1 out of every 10 rats) of the reaction times are outside the range of two to four seconds. Groups of 5 rats were used, and two control times were determined at 60 and 30 minutes prior to subcutaneous injection of the drug.
At least thirty minutes after the last control run the test drug was given […]. This was followed ten minutes later by an ED80 dose of morphine subcutaneously. The animals were retested at 20 minutes after the morphine injection. Control animals were given vehicle and morphine only. The data were calculated as follows: [formula]
The data were plotted on log-probit paper and AD50 values, i.e., the dose required to inhibit the effect of morphine by 50% within 95% confidence limits, were determined by the method of Litchfield and Wilcoxon.

[5] = +6 hr post termination of morphine infusion, during test drug infusion

## C=C1CC[C@H]2[C@H]3Cc4ccc(O)cc4[C@@]2(CCN3CC2CC2)C1 [TR-5609, 17-Cyclopropylmethyl-3-hydroxy-6-methylene-morphinan]
[1]
  ED50: 0.38 mg/kg

## C[C@H]1CC(=O)C[C@]23CCN(CC4CCC4)[C@H](Cc4ccc(O)cc42)[C@H]13.O=C(O)C(O)C(O)C(=O)O [TR-5257, 17-Cyclobutylmethyl-3-hydroxy-8β-methylmorphinan-6-one Tartrate]
[2]; rat, in vivo
  loss in weight during substitution (in words): appeared to prevent the marked loss in weight observed in the morphine controls
  substitution for morphine: ambiguous, with indication of partial substitution
[2]; rat, in vivo, 125 mg/kg/day
  Mean % Change in Weight From Termination of Morphine Infusion: -2.64%
[3]; [5]
  Incidence of Aggressive: 1/8
  Incidence of Diarrhea: 4/8
  Incidence of Pilo erection: 8/8
  Incidence of Wet dog shakes: 6/8
[3]; +24 hr
  Incidence of Pilo erection: 4/8
  Incidence of Tremors: 1/4
[3]; +30 hr
  Incidence of Pilo erection: 4/8
[3]; during period of drug substitution, 125 mg/kg/day
  withdrawal symptoms: marked withdrawal symptoms
[1]
  ED50: 0.14 mg/kg

## C=C1C[C@H](C)[C@H]2[C@H]3Cc4ccc(OC)cc4[C@@]2(CCN3CC2CCC2)C1.Cl [TR-5377, 17-cyclobutylmethyl-3-methoxy-8β-methyl-6-methylene-morphinane Hydrochloride]
[1]
  ED50: 6.42 mg/kg

## C=C1C[C@H](C)[C@H]2[C@H]3Cc4ccc(O)cc4[C@@]2(CCN3CC2CCC2)C1 [TR-5379, 17-Cyclobutylmethyl-3-hydroxy-8β-methyl-6-methylene morphinane]
Drug dependent monkeys
  substitution for morphine: did not substitute for morphine
[2]; rat, in vivo
  substitution for morphine: did not substitute for morphine; also recorded: does not substitute for morphine
[2]; rat, in vivo, 125 mg/kg/day
  Mean % Change in Weight From Termination of Morphine Infusion: -11.3%
[3]; [5]
  Incidence of Aggressive: 1/6
  Incidence of Diarrhea: 4/6
  Incidence of Pilo erection: 6/6
[3]; +24 hr
  Incidence of Diarrhea: 2.6
  Incidence of Pilo erection: 6/6
[3]; +30 hr
  Incidence of Diarrhea: 2/6
  Incidence of Pilo erection: 4/6
[1]
  ED50: 0.18 mg/kg
[4]; compared with corresponding 6-keto analog
  morphine antagonist action: more potent morphine antagonist action than its corresponding 6-keto analog
[4]; compared with corresponding 6-keto analog, test not named
  dose-response curve: steeper dose-response curve

## C=C1C[C@H](C)[C@H]2[C@H]3Cc4ccc(OC)cc4[C@@]2(CCN3CC2CC2)C1 [TR-5412, 17-cyclopropylmethyl-3-methoxy-8β-methyl-6-methylene-morphinane]
[1]
  ED50: 3.2 mg/kg

## CN1CC[C@]23c4c5ccc(O)c4O[C@H]2[C@@H](O)C=C[C@H]3[C@H]1C5 [Morphine]
[2]; +1 day (test drug infusion stopped here), 125 mg/kg/day for 1 day, morphine: infusion schedule 50-200 mg/kg/day
  Mean % Change in Weight From Termination of Morphine Infusion: -16.8%
[2]; +2 days, 125 mg/kg/day for 1 day, morphine: infusion schedule 50-200 mg/kg/day
  Mean % Change in Weight From Termination of Morphine Infusion: -12.7%
[2]; +3 days, 125 mg/kg/day for 1 day, morphine: infusion schedule 50-200 mg/kg/day
  Mean % Change in Weight From Termination of Morphine Infusion: -7.8%
[2]; +4 days, 125 mg/kg/day for 1 day, morphine: infusion schedule 50-200 mg/kg/day
  Mean % Change in Weight From Termination of Morphine Infusion: -1.6%

## C=C1CC[C@H]2[C@H]3Cc4ccc(OC)cc4[C@@]2(CCN3CC2CCC2)C1 [TR-5610, 17-Cyclobutylmethyl-3-methoxy-6-methylene-morphinane Tartrate Ethanol Solvate]
[1]
  ED50: 1.6 mg/kg
[4]; rat, test drug intraperitoneal, ED80 dose of morphine s.c. 10 min later
  AD50 (dose required to inhibit the effect of morphine by 50%): IA @ 10

## C=C1CC[C@H]2[C@H]3Cc4ccc(O)cc4[C@@]2(CCN3CC2CCC2)C1 [TR-5566, 17-Cyclobutylmethyl-3-hydroxy-6-methylene-morphinane Hydrochloride Acetone Solvate]
[1]
  ED50: 0.09 mg/kg

## C=C1C[C@H](C)[C@H]2[C@H]3Cc4ccc(O)cc4[C@@]2(CCN3CC2CC2)C1 [TR-5413, 17-Cyclopropylmethyl-3-hydroxy-8β-methyl-6-methylene-morphinane]
[1]
  ED50: 1.7 mg/kg

— patent publication US4259329A, “17-Cyclobutylmethyl-3-hydroxy-β-methyl-6-methylene morphinane, and methods of treating pain with them” (priority 1980, dated 1981)
